According to article PMC4254748 (Science (New York, N.Y.), 2014):

Legend:
neo1Δ/NEO1 strain = test: Growth of the neo1Δ/NEO1 strain; format: cell-based, yeast; conditions: OD600 for 24 hours
[1] = test system: yeast heterozygous and homozygous deletion strains; test: HIP/HOP chemogenomic fitness profiling; format: cell-based; conditions: for Chemogenomic response signature induced: HIPHOP profile
[2] = test system: immortalized human leukemia cells; test: Mitochondrial effects in immortalized human leukemia cells; format: cell-based; conditions: fig. S13

CC/C(=C(\c1ccccc1)c1ccc(OCCN(C)C)cc1)c1ccccc1 [Tamoxifen]
Induction of NEO1 haploinsufficiency (neo1Δ/NEO1 strain): Tamoxifen-induced NEO1 haploinsufficiency

CO/C1=C\C(C)=C\[C@@H](C)[C@@H](O)[C@@H](C)C/C(C)=C/C=C/[C@H](OC)[C@@H]([C@@H](C)[C@@H](O)[C@H](C)[C@@]2(O)C[C@@H](O)[C@H](C)[C@@H](C(C)C)O2)OC1=O [bafilomycin A]
Effect on tamoxifen-induced NEO1 haploinsufficiency (neo1Δ/NEO1 strain): rescued

CCCCNC(=O)n1c(NC(=O)OC)nc2ccccc21 [benomyl]
Chemogenomic response signature induced [1]: induced a signature containing tubulin biogenesis and SWR1 complex genes

OC(Cn1cncn1)(Cn1cncn1)c1ccc(F)cc1F [fluconazole]
HIP hit / strain with largest fitness defect ([1]; HIP profile): Erg11Δ/ERG11 strain represents a “hit”

COC(=O)Nc1nc2ccc(C(=O)c3cccs3)cc2[nH]1 [nocodazole]
Chemogenomic response signature induced [1]: induced a signature containing tubulin biogenesis and SWR1 complex genes

Oc1ccc(Cl)cc1Cc1cc(Cl)cc(Cc2cc(Cl)ccc2O)c1O [trichlorophene]
Chemogenomic response signature induced [1]: induced mitochondrial stress
Generation of mitochondrial reactive oxygen species [2]: increased
Reserve oxygen capacity [2]: reduction
